# Assay results taken from ChEMBL document CHEMBL1143306, “3-amido-4-anilinoquinolines as CSF-1R kinase inhibitors 2: Optimization of the PK profile” (Bioorg Med Chem Lett, 2009).
# What was measured:
# [1] = Clearance in rat at 3 mg/kg, iv and 10 mg/kg, po; format: ADME, organism-based; conditions: in vivo
# [2] = Volume of distribution at steady state in rat at 3 mg/kg, iv and 10 mg/kg, po; format: ADME, organism-based; conditions: in vivo, read-out: Vdss
# Mus musculus [3] = experiment: Inhibition of phosphorylated CSF1R level in 3T3/CSF1R mutant cells xenografted nude mouse at 25 mg/kg, po after 2 hrs by ELISA; format: functional
# [4] = Half life in rat at 3 mg/kg, iv and 10 mg/kg, po; format: ADME, organism-based; conditions: in vivo
# Mus musculus [5] = experiment: Inhibition of phosphorylated CSF1R level in 3T3/CSF1R mutant cells xenografted nude mouse at 25 mg/kg, po after 6 hrs by ELISA; format: functional
# [6] = Bioavailability in rat at 3 mg/kg, iv and 10 mg/kg, po; format: ADME, organism-based; conditions: in vivo
# [7] = Aqueous solubility of the compound; format: physicochemical; conditions: buffer
# [8] = Plasma protein binding assessed as percentage unbound
# NIH3T3 = experiment: Antiproliferative activity against mouse 3T3 cells expressing human CSF1R after 72 hrs by Celltiter assay; format: functional
# [9] = target: Macrophage colony-stimulating factor 1 receptor (Homo sapiens, UniProt P07333); experiment: Inhibition of CSF1R
# Chain of Macrophage colony-stimulating factor 1 receptor (P07333 whole entry): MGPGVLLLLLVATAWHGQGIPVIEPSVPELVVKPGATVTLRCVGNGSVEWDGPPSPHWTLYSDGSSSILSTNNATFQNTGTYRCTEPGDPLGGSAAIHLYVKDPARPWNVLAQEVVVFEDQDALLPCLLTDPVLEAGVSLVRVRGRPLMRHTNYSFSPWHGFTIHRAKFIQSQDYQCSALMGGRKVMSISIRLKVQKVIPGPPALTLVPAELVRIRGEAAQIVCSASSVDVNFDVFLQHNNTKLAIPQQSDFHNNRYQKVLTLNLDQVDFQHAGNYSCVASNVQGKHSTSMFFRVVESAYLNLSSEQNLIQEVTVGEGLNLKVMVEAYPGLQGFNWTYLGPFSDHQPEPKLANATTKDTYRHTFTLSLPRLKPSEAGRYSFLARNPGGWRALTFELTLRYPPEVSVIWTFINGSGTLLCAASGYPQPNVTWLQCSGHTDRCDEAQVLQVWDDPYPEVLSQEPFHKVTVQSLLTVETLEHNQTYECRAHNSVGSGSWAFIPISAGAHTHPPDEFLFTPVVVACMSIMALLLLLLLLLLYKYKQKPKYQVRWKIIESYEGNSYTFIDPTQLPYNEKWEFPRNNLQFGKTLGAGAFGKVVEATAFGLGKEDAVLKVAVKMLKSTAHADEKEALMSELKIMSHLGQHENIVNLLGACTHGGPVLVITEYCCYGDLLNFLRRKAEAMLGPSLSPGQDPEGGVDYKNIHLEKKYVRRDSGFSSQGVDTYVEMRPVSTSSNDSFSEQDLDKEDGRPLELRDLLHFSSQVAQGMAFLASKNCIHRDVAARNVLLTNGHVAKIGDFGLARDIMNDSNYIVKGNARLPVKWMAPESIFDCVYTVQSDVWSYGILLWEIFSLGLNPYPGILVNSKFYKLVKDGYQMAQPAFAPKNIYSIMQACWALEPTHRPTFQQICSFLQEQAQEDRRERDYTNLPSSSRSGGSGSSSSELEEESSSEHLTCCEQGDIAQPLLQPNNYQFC
Compound,clearance [1],Vd [2],inhibition in vivo at 25 mg/kg (Mus musculus [3]),half-life [4],inhibition in vivo at 25 mg/kg (Mus musculus [5]),bioavailability [6],solubility [7],fraction unbound [8],Activity (NIH3T3),IC50 [9]
CC(C)Oc1cc2ncc(C(N)=O)c(Nc3ccc(F)cc3F)c2cc1N1CCN(C)CC1,7 mL/min/kg,1.4 L/kg,100%,2.3 h,50%,40%,52 µM,0.017,0.17 µM,–
CCOc1cc2ncc(C(N)=O)c(Nc3ccc(F)cc3F)c2cc1N1CCN(CC)CC1,19 mL/min/kg,3.6 L/kg,–,2.3 h,–,46%,320 µM,0.046,0.17 µM,–
COCCOc1cc2ncc(C(N)=O)c(Nc3cc(C)ccc3F)c2cc1N1CCN(C)CC1,60 mL/min/kg,4.7 L/kg,85%,4.2 h,70%,45%,–,0.16,0.17 µM,–
CCOc1cc2ncc(C(N)=O)c(Nc3cccc(Cl)c3Cl)c2cc1N1CCN(C(=O)CO)CC1,72 mL/min/kg,2.2 L/kg,–,0.66 h,–,6%,29 µM,0.16,0.09 µM,–
COCCOc1cc2ncc(C(N)=O)c(Nc3ccc(C)cc3F)c2cc1N1CCN(C)CC1,33 mL/min/kg,8.6 L/kg,100%,3.4 h,80%,100%,63 µM,0.16,–,–
COc1cc2c(Nc3ccc(Cl)c(Cl)c3)c(C(N)=O)cnc2cc1N1CCN(C)CC1,–,–,–,–,–,–,–,–,0.55 µM,24 nM
CCOc1cc2ncc(C(N)=O)c(Nc3cccc(Cl)c3F)c2cc1N1CCN(C)CC1,24 mL/min/kg,1.9 L/kg,100%,1.1 h,90%,54%,10 µM,0.071,0.11 µM,–
CCOc1cc2ncc(C(N)=O)c(Nc3cccc(Cl)c3Cl)c2cc1N1CCN(CC)CC1,86 mL/min/kg,6.8 L/kg,95%,1.2 h,75%,19%,11 µM,0.019,0.02 µM,–
CCOc1cc2ncc(C(N)=O)c(Nc3cccc(Cl)c3Cl)c2cc1N1CCN(CCO)CC1,–,–,–,–,–,–,67 µM,0.048,0.03 µM,–
CC(C)Oc1cc2ncc(C(N)=O)c(Nc3cccc(Cl)c3Cl)c2cc1N1CCN(C)CC1,–,–,70%,–,35%,–,200 µM,0.014,0.05 µM,–
CN1CCN(c2ccc3ncc(C(N)=O)c(Nc4ccc(Cl)c(Cl)c4)c3c2)CC1,–,–,–,–,–,–,720 µM,0.058,2.7 µM,59 nM
COCCOc1cc2ncc(C(N)=O)c(Nc3cccc(Cl)c3F)c2cc1N1CCN(C)CC1,–,–,80%,–,75%,–,910 µM,0.39,0.1 µM,–
COCCOc1cc2ncc(C(N)=O)c(Nc3ccc(F)cc3F)c2cc1N1CCN(C)CC1,68 mL/min/kg,18 L/kg,100%,3.8 h,70%,100%,720 µM,0.46,–,–
CCOc1cc2ncc(C(N)=O)c(Nc3cccc(Cl)c3Cl)c2cc1N1CCN(C(C)C)CC1,120 mL/min/kg,11 L/kg,85%,1.2 h,65%,66%,250 µM,0.015,0.02 µM,–
COc1cc2c(Nc3cccc(Cl)c3Cl)c(C(N)=O)cnc2cc1N1CCN(C)CC1,–,–,–,–,–,–,220 µM,–,0.17 µM,–
CCOc1cc2ncc(C(N)=O)c(Nc3cccc(Cl)c3Cl)c2cc1N1CCN(C(C)=O)CC1,62 mL/min/kg,2.3 L/kg,65%,0.65 h,30%,11%,2 µM,0.096,0.07 µM,–
CCOc1cc2ncc(C(N)=O)c(Nc3cccc(Cl)c3Cl)c2cc1N1CCN(CCOC)CC1,–,–,–,–,–,–,13 µM,0.017,0.03 µM,–
CCOc1cc2ncc(C(N)=O)c(Nc3ccc(F)cc3F)c2cc1N1CCC(O)CC1,–,–,–,–,–,–,2 µM,0.089,–,–
COCCOc1cc2ncc(C(N)=O)c(Nc3cccc(Cl)c3Cl)c2cc1N1CCN(C)CC1,290 mL/min/kg,21 L/kg,100%,0.83 h,80%,32%,380 µM,0.1,0.01 µM,–
